# According to patent publication US20250282802A1, “P[…] AND METHODS” (priority 2020, published 2025):
# Read-outs that look alike come from different tables or passages of the source.
# Columns and labels:
# [1] = tested on: MDA-MB-231 (breast cancer); experiment: Cytotoxicity profiling (Alamar Blue), MDA-MB-231; assay type: cell-based, human
# Method: (§1) FIG. 8. Cytotoxicity of pantaphos across various cancer cell lines. Assays were conducted as described (mBio. 2021 Feb. 2; 12(1):e03402-20), using the Alamar Blue method with 72-hour treatment using Raptinal ([…]) as Dead cell control; n=3. Cell seeding densities: CT26 (colon carcinoma) 2000 c/w; HOS (osteosarcoma) 2500 c/w; ES-2 (ovarian carcinoma), HCT-116 (colorectal carcinoma), A-549 (lung carcinoma), A-172 (glioblastoma), D54 (glioblastoma), U87 (glioblastoma), T98G (glioblastoma), SK-ML-28 (melanoma), MCF-7 (breast cancer), AM38 (glioblastoma) and MDA-MB-231 (breast cancer) 3000 c/w; U118MG (malignant glioma) 4000 c/w; HepG2 (liver cancer) 8000 c/w. c/w=cells per well. IC50 and Emax values shown in Table 6 were extracted from the raw data plotted in FIG. 8.
# (§2) Cell culture cytotoxicity screening. The compounds were evaluated for their ability to kill cancer cell lines in culture, using HOS (osteosarcoma); ES-2 (ovarian cancer); HCT 116 (colon cancer); A549 (lung carcinoma); and A172 (glioma) cells. Human skin fibroblast cells (HFF-1) were also assessed. Cells were seeded (3000 cells well^−1 for ES-2, HCT 116, A549 and A172; 4000 cells well^−1 for HFF-1 and 2500 cells well^−1 for HOS) in a 96-well plate and allowed to attach overnight. Cells were treated with pantaphos in water. The concentrations of the tested compounds were 5 nM to 100 μM (1% water final; 100 μl well^−1). Raptinal (50 μM) was used as a dead control. On each plate, five technical replicates per compound were performed. 72 hours post-treatment, cell viability was assessed using the Alamar Blue method (http://www.bio-rad-antibodies.com/measuring-cytotoxicity-proliferation-spectrophotometry-fluorescence-alamarBlue.html). […] Conversion of Alamar Blue was measured with a plate reader (SpectraMax M3; Molecular Devices) by fluorescence (excitation wavelength: 555 nm; emission wavelength: 585 nm; cutoff 570 nm; autogain). Percentage death was determined by normalizing to water-treated cells and Raptinal-treated cells. […]
# [2] = tested on: T98G (glioblastoma); experiment: Cytotoxicity profiling (Alamar Blue), T98G; assay type: cell-based, human
# Method: as §1, with “IC50 and Emax values shown in Table 6 were extracted from the raw data plotted in FIG. 8.” left out
# (§3) Cell culture cytotoxicity screening. The compounds were evaluated for their ability to kill cancer cell lines in culture, using HOS (osteosarcoma); ES-2 (ovarian cancer); HCT 116 (colon cancer); A549 (lung carcinoma); and A172 (glioma) cells. Human skin fibroblast cells (HFF-1) were also assessed. […] 72 hours post-treatment, cell viability was assessed using the Alamar Blue method (http://www.bio-rad-antibodies.com/measuring-cytotoxicity-proliferation-spectrophotometry-fluorescence-alamarBlue.html). […] Conversion of Alamar Blue was measured with a plate reader (SpectraMax M3; Molecular Devices) by fluorescence (excitation wavelength: 555 nm; emission wavelength: 585 nm; cutoff 570 nm; autogain). […]
# [3] = tested on: HCT-116 (human colon cancer); experiment: Cell culture cytotoxicity screening (Alamar Blue), HCT-116; assay type: cell-based; conditions: HCT-116, Alamar Blue, 72 hours
# Method: as §1, with “IC50 and Emax values shown in Table 6 were extracted from the raw data plotted in FIG. 8.” left out
# as §3
# [4] = tested on: Klebsiella pneumoniae ATCC 27736; experiment: Antibacterial bioassay (MIC), Klebsiella pneumoniae; assay type: cell-based; conditions: CLSI
# Method: (§4) Antibacterial bioassays. Susceptibility testing for the ESKAPE pathogens and Salmonella enterica LT2 was performed using a Kirby-Bauer method as outlined by the Clinical and Laboratory Standards Institute (CLSI). For rich media bioassays, Mueller Hinton Broth 2 (MH-2, Sigma-Aldrich, 90922) was used for all strains except 1% BHI was supplemented for Enterococcus faecalis ATCC 19433. For minimal media bioassays, glucose-MOPS minimal medium was used. Briefly, overnight bacterial cultures were sub-cultured and inoculated into 5 mL top agar (0.7% agar) for final concentration of 5×10^5 CFU/mL. Then, 20 μL of a compound 2-fold dilution series (200, 100, 50, 25, 12.5, 6.25 μM in water) was spotted on 6 mm diameter blank paper discs (BD BBL™ 231039). Control discs received 20 μL of 50 mg/mL kanamycin. Plates were incubated at 35° C. for 20-24 hours. […] Sensitivity of the IPTG-inducible phosphonate uptake strain WM6242 to pantaphos was tested using a disk diffusion assay. Plates containing growth medium were overlayed with 5 mL of top agar (0.7% agar) inoculated with 100 μL (OD600=0.8) of the phosphonate-specific E. coli indicator strain (WM6242) with or without addition of 1 mM IPTG. WM6242 is engineered with an IPTG-inducible, non-specific phosphonate uptake system (phnCDE). […]
# [5] = tested on: ES-2 (human ovarian cancer); experiment: Cell culture cytotoxicity screening (Alamar Blue), ES-2; assay type: cell-based; conditions: for IC50: ES-2, Alamar Blue
# Method: as §1, §2
# [6] = tested on: AM38 (glioblastoma); experiment: Cytotoxicity profiling (Alamar Blue), AM38; assay type: cell-based, human
# Method: as §1, §2
# [7] = tested on: HFF-1 (human fibroblast cells); experiment: Cell culture cytotoxicity screening (Alamar Blue), HFF-1; assay type: cell-based; conditions: HFF-1, Alamar Blue, 72 hours
# Method: Cell culture cytotoxicity screening. The compounds were evaluated for their ability to kill cancer cell lines in culture, using HOS (osteosarcoma); ES-2 (ovarian cancer); HCT 116 (colon cancer); A549 (lung carcinoma); and A172 (glioma) cells. Human skin fibroblast cells (HFF-1) were also assessed. Cells were seeded (3000 cells well^−1 for ES-2, HCT 116, A549 and A172; 4000 cells well^−1 for HFF-1 and 2500 cells well^−1 for HOS) in a 96-well plate and allowed to attach overnight. Cells were treated with pantaphos in water. The concentrations of the tested compounds were 5 nM to 100 μM (1% water final; 100 μl well^−1). Raptinal (50 μM) was used as a dead control. On each plate, five technical replicates per compound were performed. 72 hours post-treatment, cell viability was assessed using the Alamar Blue method (http://www.bio-rad-antibodies.com/measuring-cytotoxicity-proliferation-spectrophotometry-fluorescence-alamarBlue.html). Alamar Blue solution (10 μl of 440 μM resazurin in sterile 1×PBS) was added to each well, and the plate was incubated for 3-4 hrs. Conversion of Alamar Blue was measured with a plate reader (SpectraMax M3; Molecular Devices) by fluorescence (excitation wavelength: 555 nm; emission wavelength: 585 nm; cutoff 570 nm; autogain). Percentage death was determined by normalizing to water-treated cells and Raptinal-treated cells. […]
# [8] = tested on: HepG2 (liver cancer); experiment: Cytotoxicity profiling (Alamar Blue), HepG2; assay type: cell-based, human
# Method: as §1, §2
# [9] = tested on: Escherichia coli WM6242; experiment: Disk diffusion assay with phosphonate-specific bioassay strain E. coli WM6242; assay type: cell-based
# Method: Antibacterial bioassays. Susceptibility testing for the ESKAPE pathogens and Salmonella enterica LT2 was performed using a Kirby-Bauer method as outlined by the Clinical and Laboratory Standards Institute (CLSI). For rich media bioassays, Mueller Hinton Broth 2 (MH-2, Sigma-Aldrich, 90922) was used for all strains except 1% BHI was supplemented for Enterococcus faecalis ATCC 19433. For minimal media bioassays, glucose-MOPS minimal medium was used. Briefly, overnight bacterial cultures were sub-cultured and inoculated into 5 mL top agar (0.7% agar) for final concentration of 5×10^5 CFU/mL. Then, 20 μL of a compound 2-fold dilution series (200, 100, 50, 25, 12.5, 6.25 μM in water) was spotted on 6 mm diameter blank paper discs (BD BBL™ 231039). Control discs received 20 μL of 50 mg/mL kanamycin. Plates were incubated at 35° C. for 20-24 hours. […] Sensitivity of the IPTG-inducible phosphonate uptake strain WM6242 to pantaphos was tested using a disk diffusion assay. Plates containing growth medium were overlayed with 5 mL of top agar (0.7% agar) inoculated with 100 μL (OD600=0.8) of the phosphonate-specific E. coli indicator strain (WM6242) with or without addition of 1 mM IPTG. WM6242 is engineered with an IPTG-inducible, non-specific phosphonate uptake system (phnCDE). After the seeded overlay solidified, 6 mm paper disks were spotted with 10 μL of a dilution series (200, 100, 50, 25, 12.5, 6.25 μM in water) of pantaphos and applied to the plates that were then incubated at 37° C. for 24 hours. Phosphonate-specific activity was queried by comparing sensitivity to that of 200 μM kanamycin and 200 μM fosfomycin.
# [10] = tested on: Pseudomonas aeruginosa PAO1; experiment: Antibacterial bioassay (MIC), Pseudomonas aeruginosa; assay type: cell-based; conditions: CLSI
# Method: as §4
# [11] = tested on: A-172 (human glioma cancer); experiment: Cell culture cytotoxicity screening (Alamar Blue), A-172; assay type: cell-based
# Method: as §1
# Cell culture cytotoxicity screening. The compounds were evaluated for their ability to kill cancer cell lines in culture, using HOS (osteosarcoma); ES-2 (ovarian cancer); HCT 116 (colon cancer); A549 (lung carcinoma); and A172 (glioma) cells. Human skin fibroblast cells (HFF-1) were also assessed. Cells were seeded (3000 cells well^−1 for ES-2, HCT 116, A549 and A172; 4000 cells well^−1 for HFF-1 and 2500 cells well^−1 for HOS) in a 96-well plate and allowed to attach overnight. Cells were treated with pantaphos in water. The concentrations of the tested compounds were 5 nM to 100 μM (1% water final; 100 μl well^−1). Raptinal (50 μM) was used as a dead control. On each plate, five technical replicates per compound were performed. 72 hours post-treatment, cell viability was assessed using the Alamar Blue method (http://www.bio-rad-antibodies.com/measuring-cytotoxicity-proliferation-spectrophotometry-fluorescence-alamarBlue.html). Alamar Blue solution (10 μl of 440 μM resazurin in sterile 1×PBS) was added to each well, and the plate was incubated for 3-4 hrs. Conversion of Alamar Blue was measured with a plate reader (SpectraMax M3; Molecular Devices) by fluorescence (excitation wavelength: 555 nm; emission wavelength: 585 nm; cutoff 570 nm; autogain). Percentage death was determined by normalizing to water-treated cells and Raptinal-treated cells. For IC50 determination, the data were plotted as compound concentration versus dead cell percentage and fitted to a logistic-dose-response curve using OriginPro 2019 (OriginLab). The data were generated in triplicate, and IC50 values are reported as the average of three separate experiments along with SEM values.
# [12] = read-out: Emax = percentage cell death (converted)
smiles,measurement,setting,value
"O=C(O)/C=C(\C(=O)O)C(O)P(=O)(O)O (stereo not shown) [pantaphos, 2-(hydroxy(phosphono)methyl)maleate]",Emax,"[1]; Homo sapiens, MDA-MB-231, Alamar Blue, 72-hour treatment",91%
same,IC50,"[1]; Homo sapiens, MDA-MB-231, Alamar Blue, 72-hour treatment (Table 6)",2.68 ± 0.23 µM
same,"sensitivity of the cell line to the compound, in words",[1]; MDA-MB-231,sensitive
same,IC50,"[2]; Homo sapiens, T98G, Alamar Blue, 72-hour treatment (Table 6)",> 100 µM
same,"sensitivity of the cell line to pantaphos, in words",[2]; glioblastoma cell line printed as TG98,resistant
same,IC50,[3],10.4 ± 2 µM
same,Emax,[3]; [12],59%
same,MIC,"[4]; ATCC27736, Mueller-Hinton 2 medium, read-out: MIC, Rich medium",> 200 µM
same,MIC,"[4]; ATCC27736, glucose-MOPS minimal medium, read-out: MIC, Minimal medium",> 200 µM
same,IC50,[5]; 72-hour treatment (Table 6),> 100 µM
same,"cytotoxicity at the maximum dose, in words","[5]; ES-2, maximum dose",unaffected
same,IC50,"[5]; Homo sapiens, 72 hours",> 100 µM
same,"sensitivity of the cell line to the compound, in words",[6]; AM38,sensitive
same,Emax,"[6]; Homo sapiens, AM-38, AM38, Alamar Blue, 72-hour treatment",74 to 78%
same,IC50,"[6]; Homo sapiens, AM-38, AM38, Alamar Blue, 72-hour treatment (Table 6)",3.97 ± 1.01 µM
same,IC50,[7],6.69 ± 0.29 µM
same,Emax,[7]; [12],85%
same,"sensitivity of the cell line to the compound, in words",[8]; HepG2,sensitive
same,Emax,"[8]; Homo sapiens, HepG2, Alamar Blue, 72-hour treatment",71 to 77%
same,IC50,"[8]; Homo sapiens, HepG2, Alamar Blue, 72-hour treatment (Table 6)",4.22 ± 0.57 µM
same,MIC,"[9]; +IPTG, Mueller-Hinton 2 medium, read-out: MIC, Rich medium",>200 µM
same,MIC,"[9]; +IPTG, glucose-MOPS minimal medium, read-out: MIC, Minimal medium",>200 µM
same,MIC,"[9]; Escherichia coli, WM6242, −IPTG, Mueller-Hinton 2 medium, read-out: MIC, Rich medium",> 200 µM
same,MIC,"[9]; Escherichia coli, WM6242, −IPTG, glucose-MOPS minimal medium, read-out: MIC, Minimal medium",> 200 µM
same,"sensitivity of the strain to pantaphos, in words",[9]; with or without IPTG induction,insensitive
same,MIC,"[10]; Mueller-Hinton 2 medium, read-out: MIC, Rich medium",> 200 µM
same,MIC,"[10]; glucose-MOPS minimal medium, read-out: MIC, Minimal medium",> 200 µM
same,IC50,"[11]; A 172, 72 h, A-172, Alamar Blue, 72-hour treatment (Table 6)",1.01 ± 0.06 µM
same,IC50,"[11]; A 172, 72 h, A-172, Alamar Blue, 72 hours",1 µM
same,IC50,"[11]; A 172, A-172 (text of Example 5)",1 µM
same,Emax,"[11]; A-172, Alamar Blue, 72 hours, read-out: Emax = percentage cell death (converted)",99%
